Measured values: patent publication US9211310B2, “Use of a Chinese medicine composition in preparing medicaments for treating secondary prevention of myocardial infarction” (TASLY PHARMACEUTICAL GROUP CO., LTD, priority 2010, dated 2015)

Tested on: patients after acute myocardial infarction
Test: TCM symptom score, total and single (chest pain, chest tightness, short breath, fatigue, palpitation, spontaneous perspiration, pale complexion), same clinical trial
Type: in vivo, human
Settings: for chest pain score 0, number of patients / chest pain score 0, percent of patients / chest pain score 3, number of patients / chest pain score 3, percent of patients / chest pain score 6, number of patients / chest pain score 6, percent of patients / chest pain score 9, number of patients / chest pain score 9, percent of patients / chest tightness score 0, number of patients / chest tightness score 0, percent of patients / chest tightness score 3, number of patients / chest tightness score 3, percent of patients / chest tightness score 6, number of patients / chest tightness score 6, percent of patients / chest tightness score 9, number of patients / chest tightness score 9, percent of patients: 12 months after treatment
Description: 3508 patients who were in accordance with the diagnostic standards of AMI for 28 days to 2 years and differentiated as Qi deficiency and blood stagnation syndrome by TCM were studied. 0.5 g Chinese medicine composition prepared by the method of EXAMPLE 1 (Coded as QSYQ) was administrated half an hour after meal, 3 times per day.
They included the overall survival time, angina pectoris score, TCM symptom score and life quality score, where angina pectoris score, TCM symptom score and life quality score were evaluated at randomization, in 1st, 3rd, 6th, 9th, 12th month after treatment and 18th month after follow-up.
The analysis method referred to the angina pectoris score.

[1] = 12 months after treatment-baseline, FAS
[2] = 12 months after treatment-baseline, PP
[3] = FAS, 12 months after treatment-treatment

CC(=O)Oc1ccccc1C(=O)O [Control group, aspirine]
change of chest tightness score 9, number of patients [1]: 5
change of chest tightness score 9, percent of patients [1]: (0.29%)
change of chest tightness score −3, number of patients [1]: 83
change of chest tightness score −3, percent of patients [1]: (4.86%)
change of chest tightness score −6, number of patients [1]: 3
change of chest tightness score −6, percent of patients [1]: (0.18%)
change of chest tightness score −9, number of patients [1]: 0
change of chest tightness score −9, percent of patients [1]: (0.00%)
change of chest pain score 0, number of patients [2]: 760
change of chest pain score 0, percent of patients [2]: (54.36%)
change of chest pain score 3, number of patients [2]: 455
change of chest pain score 3, percent of patients [2]: (32.55%)
change of chest pain score 6, number of patients [2]: 131
change of chest pain score 6, percent of patients [2]: (9.37%)
change of chest pain score 9, number of patients [2]: 5
change of chest pain score 9, percent of patients [2]: (0.36%)
change of chest pain score −3, number of patients [2]: 45
change of chest pain score −3, percent of patients [2]: (3.22%)
change of chest pain score −6, number of patients [2]: 2
change of chest pain score −6, percent of patients [2]: (0.14%)
change of chest tightness score 0, number of patients [2]: 721
change of chest tightness score 0, percent of patients [2]: (51.54%)
change of chest tightness score 3, number of patients [2]: 539
change of chest tightness score 3, percent of patients [2]: (38.53%)
change of chest tightness score 6, number of patients [2]: 79
change of chest tightness score 6, percent of patients [2]: (5.65%)
change of chest tightness score 9, number of patients [2]: 4
change of chest tightness score 9, percent of patients [2]: (0.29%)
change of chest tightness score −3, number of patients [2]: 54
change of chest tightness score −3, percent of patients [2]: (3.86%)
change of chest tightness score −6, number of patients [2]: 2
change of chest tightness score −6, percent of patients [2]: (0.14%)
change of chest tightness score −9, number of patients [2]: 0
change of chest tightness score −9, percent of patients [2]: (0.00%)
chest pain score 0, number of patients (FAS): 858
chest pain score 0, percent of patients (FAS): (49.94%)
chest pain score 3, number of patients (FAS): 607
chest pain score 3, percent of patients (FAS): (35.33%)
chest pain score 6, number of patients (FAS): 248
chest pain score 6, percent of patients (FAS): (14.44%)
chest pain score 9, number of patients (FAS): 5
chest pain score 9, percent of patients (FAS): (0.29%)
chest tightness score 0, number of patients (FAS): 858
chest tightness score 0, percent of patients (FAS): (49.94%)
chest tightness score 3, number of patients (FAS): 607
chest tightness score 3, percent of patients (FAS): (35.33%)
chest tightness score 6, number of patients (FAS): 248
chest tightness score 6, percent of patients (FAS): (14.44%)
chest tightness score 9, number of patients (FAS): 5
chest tightness score 9, percent of patients (FAS): (0.29%)
chest pain score 0, number of patients (PP): 725
chest pain score 0, percent of patients (PP): (51.67%)
chest pain score 3, number of patients (PP): 501
chest pain score 3, percent of patients (PP): (35.71%)
chest pain score 6, number of patients (PP): 176
chest pain score 6, percent of patients (PP): (12.54%)
chest pain score 9, number of patients (PP): 1
chest pain score 9, percent of patients (PP): (0.07%)
chest tightness score 0, number of patients (PP): 725
chest tightness score 0, percent of patients (PP): (51.67%)
chest tightness score 3, number of patients (PP): 501
chest tightness score 3, percent of patients (PP): (35.71%)
chest tightness score 6, number of patients (PP): 176
chest tightness score 6, percent of patients (PP): (12.54%)
chest tightness score 9, number of patients (PP): 1
chest tightness score 9, percent of patients (PP): (0.07%)
change of short breath 0, % of patients [3]: (55.85%)
change of short breath 2, % of patients [3]: (32.92%)
change of short breath 2, number of patients [3]: 563
change of short breath 4, % of patients [3]: (4.09%)
change of short breath 4, number of patients [3]: 70
change of short breath 6, % of patients [3]: (0.70%)
change of short breath 6, number of patients [3]: 12
change of short breath −2, % of patients [3]: (6.32%)
change of short breath −2, number of patients [3]: 108
change of short breath −4, % of patients [3]: (0.12%)
change of short breath −4, number of patients [3]: 2
distribution of total score of TCM symptom: Medium, number of patients (FAS, 1 month after treatment): 675
distribution of total score of TCM symptom: Medium, percentage of patients (FAS, 1 month after treatment): (40.11%)
distribution of total score of TCM symptom: Mild, number of patients (FAS, 1 month after treatment): 989
distribution of total score of TCM symptom: Mild, percentage of patients (FAS, 1 month after treatment): (58.76%)
distribution of total score of TCM symptom: Severe, number of patients (FAS, 1 month after treatment): 19
distribution of total score of TCM symptom: Severe, percentage of patients (FAS, 1 month after treatment): (1.13%)
fatigue score 0, % of patients (FAS, 1 month after treatment): (24.05%)
fatigue score 0, number of patients (FAS, 1 month after treatment): 413
fatigue score 2, % of patients (FAS, 1 month after treatment): (60.75%)
fatigue score 2, number of patients (FAS, 1 month after treatment): 1043
fatigue score 4, % of patients (FAS, 1 month after treatment): (13.86%)
fatigue score 4, number of patients (FAS, 1 month after treatment): 238
fatigue score 6, % of patients (FAS, 1 month after treatment): (1.34%)
fatigue score 6, number of patients (FAS, 1 month after treatment): 23
pale complexion score 0, number of patients (FAS, 1 month after treatment): 713
pale complexion score 0, percent of patients (FAS, 1 month after treatment): (41.53%)
pale complexion score 1, number of patients (FAS, 1 month after treatment): 726
pale complexion score 1, percent of patients (FAS, 1 month after treatment): (42.28%)
pale complexion score 2, number of patients (FAS, 1 month after treatment): 245
pale complexion score 2, percent of patients (FAS, 1 month after treatment): (14.27%)
pale complexion score 3, number of patients (FAS, 1 month after treatment): 33
pale complexion score 3, percent of patients (FAS, 1 month after treatment): (1.92%)
palpitation score 0, number of patients (FAS, 1 month after treatment): 427
palpitation score 0, percent of patients (FAS, 1 month after treatment): (24.87%)
palpitation score 1, number of patients (FAS, 1 month after treatment): 1
palpitation score 1, percent of patients (FAS, 1 month after treatment): (0.06%)
palpitation score 2, number of patients (FAS, 1 month after treatment): 834
palpitation score 2, percent of patients (FAS, 1 month after treatment): (48.57%)
palpitation score 4, number of patients (FAS, 1 month after treatment): 398
palpitation score 4, percent of patients (FAS, 1 month after treatment): (23.18%)
palpitation score 6, number of patients (FAS, 1 month after treatment): 57
palpitation score 6, percent of patients (FAS, 1 month after treatment): (3.32%)
short breath score 0, % of patients (FAS, 1 month after treatment): (21.14%)
short breath score 0, number of patients (FAS, 1 month after treatment): 363
short breath score 3, % of patients (FAS, 1 month after treatment): (54.22%)
short breath score 3, number of patients (FAS, 1 month after treatment): 931
short breath score 6, % of patients (FAS, 1 month after treatment): (23.88%)
short breath score 6, number of patients (FAS, 1 month after treatment): 410
short breath score 9, % of patients (FAS, 1 month after treatment): (0.76%)
short breath score 9, number of patients (FAS, 1 month after treatment): 13
spontaneous perspiration score 0, number of patients (FAS, 1 month after treatment): 603
spontaneous perspiration score 0, percent of patients (FAS, 1 month after treatment): (35.12%)
spontaneous perspiration score 1, number of patients (FAS, 1 month after treatment): 879
spontaneous perspiration score 1, percent of patients (FAS, 1 month after treatment): (51.19%)
spontaneous perspiration score 2, number of patients (FAS, 1 month after treatment): 215
spontaneous perspiration score 2, percent of patients (FAS, 1 month after treatment): (12.52%)
spontaneous perspiration score 3, number of patients (FAS, 1 month after treatment): 20
